{"source": "paper PMC9919490", "about": "“Synthesis and Biological Evaluation of Novel Dispiro-Indolinones with Anticancer Activity” (Molecules, 2023)", "key": {"PC3 cells": {"system": "PC3 cells", "experiment": "MTT cytotoxicity assay, PC3 (p53 neg)", "assay_type": "cell-based", "conditions": "Homo sapiens, PC-3, 48 h"}, "HCT116 tumor xenografts": {"system": "HCT116 tumor xenografts", "experiment": "HCT116 xenograft model", "protocol": "The first implantation of HCT116 tumor cells (1 × 10^6 in a volume of 0.5 mL) was performed subcutaneously into two BALB/c nude mice. The first transplantation of the xenograft (50 mg) was performed after 30 days into 2 mice (the 3rd passage was used in vivo). […] Then, in a laminar flow hood, the tumor suspension (0.5 mL, the first passage) was implanted subcutaneously into the flank area of two BALB/c nude mice (males). After a volume of 0.8–1.0 cm^3 was achieved, the nudes were passaged using 4 donor mice to obtain the desired grade and mass of the transplants. […] The tumor nests were mechanistically disintegrated to obtain 10% of the tumor samples, and then the nutrient medium was added. The inoculation was performed using individual sterile plastic syringes (1 mL) equipped with 18G suture needles. The transplantation was carried out bilaterally in the flank areas. Each mouse was inoculated with 0.5 mL (10%) of the tumor suspension (40 mg of the tumor mass for each animal). Prior to inoculation, the animals’ skin was treated with 70% alcohol. Between injections, the Petri dish containing the tumor suspension was tightly covered to avoid any contamination. Before injection, the suspension was vigorously stirred in a syringe. […]"}, "[1]": {"system": "p53, PUMA, CASPASE-3 in HCTwt cells", "experiment": "Western blot, p53 and p53-dependent apoptosis proteins", "assay_type": "cell-based", "procedure": "To verify the mechanism of cytotoxic action of the synthesized dispiro-indolinones, Western blot testing of dispiro-indolinone 29 was performed using the p53-expressing HCTwt and LNCaP cell lines. Both the p53 protein and the proteins involved in the p53-dependent process of apoptosis (i.e., BAX, NOXA, and PUMA) were determined. For comparison, similar testing was carried out for a cell line not expressing p53 (HCT^(−/−))."}, "HCT^wt cells": {"system": "HCT^wt cells", "experiment": "MTT cytotoxicity assay, HCT^wt (p53 pos)", "assay_type": "cell-based", "conditions": "48 h"}, "LNCaP cells": {"system": "LNCaP cells", "experiment": "MTT cytotoxicity assay, LNCaP (p53 pos)", "assay_type": "cell-based", "conditions": "Homo sapiens, LNCaP, 48 h"}, "HCT^−/− cells": {"system": "HCT^−/− cells", "experiment": "MTT cytotoxicity assay, HCT^−/− (p53 neg)", "assay_type": "cell-based", "conditions": "48 h"}, "Acute toxicity": {"experiment": "Acute toxicity", "assay_type": "in vivo", "conditions": "for body weight (M ± m): i.p. 2500 mg/kg", "procedure": "Acute toxicity tests were performed on mature outbred mice (male and female). The design of the experiment is specified in Table S3 (Supplementary Materials).\nTo select the doses, the pilot experiments were carried out on a minimum number of animals.\nThe surviving animals were subjected to euthanasia and necropsy on the 29th day of the experiment to study the effects of the test agent on their internal organs.\nOutbred mice (males and females) were used in the experiments. Intraperitoneal injections were applied in the posterior third of the abdomen, slightly departing from the midline. The mice were injected with 1 mL of the solution. […] The solution was prepared ex tempore. Doses were calculated for each animal separately, according to body weight data.\nThe group arithmetic mean (M) and standard error of the mean (m) were calculated. Statistical significance of the differences was assessed using Student’s t-test. The differences between these groups were considered significant at p < 0.05."}, "P388": {"system": "P388", "experiment": "P388 transplant model in mice", "assay_type": "in vivo", "conditions": "for ALS (average life span): control 16.6 ± 1.8 d", "procedure": "To preliminary estimate the antitumor effect of the compound in vivo, transplant P388 and HCT116 xenograft mouse models were used.\nPrior to the trials, the animals were split into different groups (five mice per group). One group was monitored as a control population, where the animals were kept untreated, while the other groups were subjected to the tested compound. […] Four independent trials were carried out.\nFor the first evaluation, the sample was initially injected i.p. on day 2 of the study, and the treatment was subsequently continued during the following 9 days (total 10 d course). The typical doses were calculated considering the average body weight of the animals (20 g) and ranged between groups 1 and 3; group 4 was assigned as a control population. […] To verify the obtained results, we performed the second evaluation using the following schedule: the first group was administered i.p. with 500 mg/kg (5000 mg/kg), the second group was given 750 mg/kg (7500 mg/kg), and the third group was given 1000 mg/kg (10,000 mg/kg). We also carried out the third trial with an appropriate dose of 1000 mg/kg. For p.o. administration (trial 4), we used a single dose (170 mg/kg) of the unmodified compound; the cumulative dose was 1700 mg/kg.\nDBA2 mice were used as donors of cancerous mass; a total of 50 animals were recruited. Twenty-three conventional, immunodeficient female mice (BALB/c nude, 20–23 g) were housed in RAMS and used as donors and recipients for HCT116 cells.\nFor the evaluation of the compound against leucosis in vivo, we used 5 and 8 passages of P388 culture. […]"}, "[2]": {"conditions": "first trial, i.p. 295 mg/kg (g1)"}, "[3]": {"conditions": "first trial, i.p. 882 mg/kg (g2)"}}, "data": [{"smiles": "CCOc1ccc(N2C(=O)C3(NC2=S)C(c2ccc(Cl)cc2)CN(C)C32C(=O)Nc3ccc(Br)cc32)cc1", "note": "(stereo not shown) [Compound 29]", "values": [{"measurement": "IC50", "setting": "PC3 cells", "value": "9.8 ± 3.7", "unit": "µM"}, {"measurement": "T/C", "setting": "HCT116 tumor xenografts; 1000 mg/kg i.p. o.d. 10 days, after 4 days, p = 0.0007", "value": 44, "unit": "%"}, {"measurement": "T/C (treatment/control)", "setting": "HCT116 tumor xenografts; sample 1000 mg/kg i.p. o.d. 10 days, after 24 h, p = 0.00005", "value": 25, "unit": "%"}, {"measurement": "concentration / expression of the p53 protein", "setting": "[1]; HCTwt cell culture, increasing concentration, nutlin-3a 20 µM positive control", "value": "slight increase"}, {"measurement": "expression of CASPASE-3", "setting": "[1]; Western blot", "value": "increase"}, {"measurement": "expression of PUMA", "setting": "[1]; Western blot", "value": "increase"}, {"measurement": "IC50", "setting": "HCT^wt cells", "value": "14.1 ± 4.2", "unit": "µM"}, {"measurement": "IC50", "setting": "LNCaP cells", "value": "3.5 ± 1.9", "unit": "µM"}, {"measurement": "IC50", "setting": "HCT^−/− cells", "value": "70.5 ± 15.2", "unit": "µM"}, {"measurement": "autopsy finding", "setting": "Acute toxicity; 29th day after exposure, intraperitoneal 2500 mg/kg", "value": "increase in the liver, with signs of dystrophy"}, {"measurement": "dynamics of body weight", "setting": "Acute toxicity; intraperitoneal 2500 mg/kg, vs control mice", "value": "did not show differences from the control mice"}, {"measurement": "clinical picture of intoxication", "setting": "Acute toxicity; intraperitoneal, 2500 mg/kg", "value": "depressed state, a decrease in motor activity, and the release of porphyrin"}, {"measurement": "time after which symptoms of intoxication disappeared", "setting": "Acute toxicity; intraperitoneal, 2500 mg/kg", "value": "30 to 60", "unit": "min"}, {"measurement": "deaths", "setting": "Acute toxicity; intraperitoneal, 2500 mg/kg, observation 28 days", "value": "no deaths were registered"}, {"measurement": "body weight (M ± m)", "setting": "Acute toxicity; ♀, day 0", "value": "23,8±0,54 grams"}, {"measurement": "body weight (M ± m)", "setting": "Acute toxicity; ♀, day 7", "value": "24,0±1,25 grams"}, {"measurement": "body weight (M ± m)", "setting": "Acute toxicity; ♀, day 14", "value": "24,5±0,91 grams"}, {"measurement": "body weight (M ± m)", "setting": "Acute toxicity; ♀, day 21", "value": "24,0±1,13 grams"}, {"measurement": "body weight (M ± m)", "setting": "Acute toxicity; ♀, day 29", "value": "25,0±1,18 grams"}, {"measurement": "body weight (M ± m)", "setting": "Acute toxicity; ♂, day 0", "value": "24,6±0,53 grams"}, {"measurement": "body weight (M ± m)", "setting": "Acute toxicity; ♂, day 7", "value": "25,2±0,49 grams"}, {"measurement": "body weight (M ± m)", "setting": "Acute toxicity; ♂, day 14", "value": "26,9±0,58 grams"}, {"measurement": "body weight (M ± m)", "setting": "Acute toxicity; ♂, day 21", "value": "26,0±0,63 grams"}, {"measurement": "body weight (M ± m)", "setting": "Acute toxicity; ♂, day 29", "value": "24,1±0,32 grams"}, {"measurement": "mortality at highest dose, close to the MTD", "setting": "P388; 1263 mg/kg (12,630 mg/kg cumulative), day 3 after the treatment was stopped", "value": "one mouse (bw = 19 g) dying"}, {"measurement": "days on which lethal outcomes were registered", "setting": "P388; [2]", "value": "16 to 24", "unit": "days"}, {"measurement": "LSE (lifespan extension)", "setting": "P388; first trial, i.p. 295 mg/kg (g1), p > 0.05", "value": 17, "unit": "%"}, {"measurement": "ALS (average life span)", "setting": "P388; [2]", "value": "19.8 ± 3.0", "unit": "days"}, {"measurement": "days on which lethal outcomes were registered", "setting": "P388; [3]", "value": "18 to 22", "unit": "days"}, {"measurement": "LSE (lifespan extension)", "setting": "P388; first trial, i.p. 882 mg/kg (g2), p > 0.05", "value": 19, "unit": "%"}, {"measurement": "ALS (average life span)", "setting": "P388; [3]", "value": "19.4 ± 1.7", "unit": "days"}, {"measurement": "days on which deaths were observed", "setting": "P388; first trial, i.p. 1176 mg/kg (g3)", "value": "14 to 22", "unit": "days"}, {"measurement": "TGRI", "setting": "P388; first trial, i.p. 1176 mg/kg (g3), subsequent three days", "value": 40, "unit": "%"}, {"measurement": "TGRI", "setting": "P388; first trial, i.p. 1176 mg/kg daily (g3), 24 h after the treatment was discontinued", "value": 76, "unit": "%"}, {"measurement": "T/C", "setting": "P388; first trial, i.p. o.d. 10 days, 295 and 882 mg/kg", "value": "< 42", "unit": "%"}, {"measurement": "TGRI (tumor growth rate inhibition)", "setting": "P388; first trial, sample (17% compound, Pluronic F-127) i.p. o.d. 10 days, 295 mg/kg (g1) and 882 mg/kg (g2), p > 0.05", "value": "32–37%"}, {"measurement": "TGRI", "setting": "P388; i.p. 500 mg/kg", "value": "approx. 50%"}, {"measurement": "Т/C%", "setting": "P388; p.o. 170 mg/kg o.d. 10 days, day 12", "value": 84, "unit": "%"}, {"measurement": "Tumor volume, av. volume", "setting": "P388; p.o. 170 mg/kg o.d. 10 days, day 12, control 570", "value": 481, "unit": "mm3"}, {"measurement": "Tumor volume, av. volume", "setting": "P388; p.o. 170 mg/kg o.d. 10 days, day 15, control 804", "value": 1099, "unit": "mm3"}, {"measurement": "TGRI", "setting": "P388; second trial, i.p. 750 mg/kg o.d., day 2 after the treatment was completed, p = 0.002", "value": 68, "unit": "%"}, {"measurement": "TGRI", "setting": "P388; second trial, i.p. 750 mg/kg o.d., subsequent 3 days", "value": 62, "unit": "%"}, {"measurement": "LSE", "setting": "P388; third trial, i.p. 1000 mg/kg o.d.", "value": 33.33, "unit": "%"}, {"measurement": "TGRI", "setting": "P388; third trial, i.p. 1000 mg/kg o.d. 10 days, day 2 after the treatment was completed", "value": 81.3, "unit": "%"}, {"measurement": "TGRI", "setting": "P388; third trial, i.p. 1000 mg/kg o.d., day 8 after the treatment was discontinued (final control timepoint)", "value": 93, "unit": "%"}, {"measurement": "TGRI", "setting": "P388; third trial, i.p. 1000 mg/kg o.d., following 3 days", "value": 89, "unit": "%"}]}]}
